How the values were obtained:
Format in all cases: functional
Design in all cases: scale not given: the % may be the effect or the level left
[1] = system: Mus musculus; experiment: Ex-vivo inhibition of BTK in C57BL/6J mouse assessed as anti-mouse IgD antibody stimulated BCR mediated CD69 level in whole blood isolated from 10 mg/kg, po bid treated mouse measured after 24 hrs post first dose by flow cytometry relative to control
[2] = system: Mus musculus; experiment: Ex-vivo inhibition of BTK in C57BL/6J mouse assessed as anti-mouse IgD antibody stimulated BCR mediated CD69 level in whole blood isolated from 100 mg/kg, po bid treated mouse measured after 24 hrs post first dose by flow cytometry relative to control
[3] = system: Mus musculus; experiment: Ex-vivo inhibition of BTK in C57BL/6J mouse assessed as anti-mouse IgD antibody stimulated BCR mediated CD69 level in whole blood isolated from 30 mg/kg, po bid treated mouse measured after 2 hrs post first dose by flow cytometry relative to control
[4] = system: Mus musculus; experiment: Ex-vivo inhibition of BTK in C57BL/6J mouse assessed as anti-mouse IgD antibody stimulated BCR mediated CD69 level in whole blood isolated from 10 to 100 mg/kg, po bid treated mouse measured after 2 hrs post first dose by flow cytometry relative to control

Row | Structure (SMILES) | Activity [1] [%] | Activity [2] [%] | Activity [3] [%] | Activity [4] [%]
1 | CCN1CCN(Cc2ccc(-c3cc4c(-c5cccc(N6CCOc7cc(C8CC8)cc(F)c7C6=O)c5CO)ccnc4[nH]3)nc2)CC1 | 40 | 83 | 45 | –
2 | O=C1c2c(F)cc(C3CC3)cc2OCCN1c1cccc(-c2ccnc3[nH]c(C4=CCN(C5COC5)CC4)cc23)c1CO | – | – | – | >90

— ChEMBL document CHEMBL4177534, “Discovery and evaluation of 1H-pyrrolo[2,3-b]pyridine based selective and reversible small molecule BTK inhibitors for the treatment of rheumatoid arthritis” (Bioorg Med Chem Lett, 2017)
